Patent publication US20220090124A1, “HUMANIZED VIPR2 COPY NUMBER VARIANT TRANSGENIC MOUSE MODEL FOR ANTIPSYCHOTIC DRUG AND GENE THERAPY DISCOVERY FOR SCHIZOPHRENIA” (Board of Supervisors of Louisiana State University and …, priority 2019, published 2022)

What was measured:
human VIPR2 receptor = target: T1, human VIPR2 receptor (Homo sapiens, UniProt P41587); test: receptor block and downstream signaling in cell line expressing the human VIPR2 receptor; format: cell-based; settings: cell line expressing the human VIPR2 receptor (cell line of VIPR2 CNV)
T1 construct: expressed in transfected cells; host or cells: cell line of VPIR2 CNV (not further described)
T1 sequence (P41587 24-438): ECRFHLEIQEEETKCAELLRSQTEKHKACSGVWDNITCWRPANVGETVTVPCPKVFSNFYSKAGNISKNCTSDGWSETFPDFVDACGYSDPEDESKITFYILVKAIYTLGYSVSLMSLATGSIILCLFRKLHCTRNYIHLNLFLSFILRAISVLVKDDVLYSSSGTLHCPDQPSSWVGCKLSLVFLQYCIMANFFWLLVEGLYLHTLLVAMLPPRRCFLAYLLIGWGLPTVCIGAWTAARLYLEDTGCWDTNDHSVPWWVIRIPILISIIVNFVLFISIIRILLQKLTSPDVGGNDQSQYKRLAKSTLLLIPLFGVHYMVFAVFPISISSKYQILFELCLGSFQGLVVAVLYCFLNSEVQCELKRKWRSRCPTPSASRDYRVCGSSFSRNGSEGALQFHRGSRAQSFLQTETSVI
Excerpt: Turning finally to FIG. 57, a small molecule VIPR2 antagonist, (2R,4S)-2-benzyl-4-hydroxy-N-((1S,2R)-2-hydroxy-2,3-dihydro-1H-inden-1-yl)-5-(4-nitrophenylsulfonamido) pentanamide, is shown. Another object of the present invention is to use the VIRP2 BAC Schizophrenia mouse model to identify VIPR2 receptor antagonist as an antipsychotic drug targeting cognitive and social deficits, or as disease-modifying therapy to prevent or slow/stop disease progression. Currently, the majority of VIPR2 agonist or antagonist are peptides. However, two properties of the peptide hormone are problematic from the perspective of therapeutic applications. First, they have a short half-life as a result of its rapid proteolysis. Second, most of these peptides are not specific and activate three broadly distributed receptors, VIPR1, VIPR2, and PAC1. A high-throughput screen on human VPAC2 receptor using a cell-based cAMP assay has identified a single confirmed antagonist hit from a 1.67 million-compound collection. This compound is the first specific small molecule antagonist for human VIPR2 receptor. The full name of the compound is (2R,4S)-2-benzyl-4-hydroxy-N-((1S,2R)-2-hydroxy-2,3-dihydro-1H-inden-1-yl)-5-(4-nitrophenylsulfonamido) pentanamide (FIG. 57). […] The inventors experimented with this hVIPR2 antagonist in the cell line of VPIR2 CNV. […]

human VPAC2 receptor = target: T2, human VPAC2 receptor (Homo sapiens, UniProt P41587); settings: high-throughput screen of 1.67 million-compound collection, cell-based cAMP assay; cited from earlier work
T2 sequence (P41587 24-438): T1 sequence (P41587 24-438)

hVPAC1 = target: T3, hVPAC1 (Homo sapiens, UniProt P32241); settings: selectivity; cited from earlier work
T3 sequence (P32241 31-457): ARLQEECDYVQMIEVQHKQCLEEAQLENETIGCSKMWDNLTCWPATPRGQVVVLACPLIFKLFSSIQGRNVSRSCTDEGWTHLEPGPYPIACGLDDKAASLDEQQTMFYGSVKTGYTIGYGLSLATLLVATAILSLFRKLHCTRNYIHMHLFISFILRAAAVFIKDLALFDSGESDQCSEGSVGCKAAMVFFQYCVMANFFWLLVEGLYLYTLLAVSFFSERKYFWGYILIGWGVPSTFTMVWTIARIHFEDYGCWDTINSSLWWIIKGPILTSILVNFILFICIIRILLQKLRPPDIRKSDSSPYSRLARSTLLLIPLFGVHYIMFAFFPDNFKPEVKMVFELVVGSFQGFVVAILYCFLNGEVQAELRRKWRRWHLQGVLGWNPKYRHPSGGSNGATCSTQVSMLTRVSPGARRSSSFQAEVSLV

hPAC1 = target: T4, hPAC1 (Homo sapiens, UniProt P41586); settings: selectivity; cited from earlier work
T4 sequence (P41586 21-468): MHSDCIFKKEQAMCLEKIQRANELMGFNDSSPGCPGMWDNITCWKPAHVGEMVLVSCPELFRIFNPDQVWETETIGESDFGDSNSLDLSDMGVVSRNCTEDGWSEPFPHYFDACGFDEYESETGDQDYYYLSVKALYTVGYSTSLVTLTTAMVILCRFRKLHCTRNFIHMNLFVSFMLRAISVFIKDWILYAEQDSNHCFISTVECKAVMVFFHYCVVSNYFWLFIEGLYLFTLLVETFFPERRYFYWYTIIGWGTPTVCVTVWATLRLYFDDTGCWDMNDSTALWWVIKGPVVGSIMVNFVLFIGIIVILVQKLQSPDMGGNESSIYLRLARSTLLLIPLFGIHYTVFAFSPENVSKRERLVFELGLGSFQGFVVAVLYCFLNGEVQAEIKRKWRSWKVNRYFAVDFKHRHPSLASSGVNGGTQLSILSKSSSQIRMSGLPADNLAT

mouse Vipr2 receptor = target: T5, mouse Vipr2 receptor (Mus musculus, UniProt P41588); settings: species specificity; cited from earlier work
T5 sequence (P41588 23-437): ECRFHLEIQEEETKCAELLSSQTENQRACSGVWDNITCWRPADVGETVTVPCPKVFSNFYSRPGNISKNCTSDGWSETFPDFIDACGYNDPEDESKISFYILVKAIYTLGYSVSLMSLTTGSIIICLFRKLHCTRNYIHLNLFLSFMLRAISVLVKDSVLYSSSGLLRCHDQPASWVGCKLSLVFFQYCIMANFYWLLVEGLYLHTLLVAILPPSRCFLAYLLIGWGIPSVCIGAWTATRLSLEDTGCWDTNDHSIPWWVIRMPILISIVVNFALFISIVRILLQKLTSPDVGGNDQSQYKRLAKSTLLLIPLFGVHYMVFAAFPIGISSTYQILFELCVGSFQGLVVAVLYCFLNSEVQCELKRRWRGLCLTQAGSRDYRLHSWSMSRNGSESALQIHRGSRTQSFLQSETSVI

O=C(N[C@H]1c2ccccc2C[C@H]1O)[C@H](Cc1ccccc1)C[C@H](O)CNS(=O)(=O)c1ccc([N+](=O)[O-])cc1 [(2R,4S)-2-benzyl-4-hydroxy-N-((1S,2R)-2-hydroxy-2,3-dihydro-1H-inden-1-yl)-5-(4-nitrophenylsulfonamido) pentanamide]
block of VIPR2 receptor and downstream signaling (human VIPR2 receptor): blocks the VIPR2 receptor and the downstream signaling | antagonist activity on human VIPR2 receptor (human VPAC2 receptor): selective human VIPR2 antagonist | antagonism of hVPAC1 (hVPAC1): does not antagonize | antagonism of hPAC1 (hPAC1): does not antagonize | activity on the mouse Vipr2 receptor (mouse Vipr2 receptor): completely lacks activity
